Tests used:
[1] = tested on: Kv flux; type: cell-based; parameters: Effectiveness: scale not given here; details: for Effectiveness / Kv flux 100% in nt (stimulus buffer only): conc. 0.625 uM; for K+ inhibition as compared with sPIF: dose comparison analysis
Description: Currently, effective immunomodulatory agents, with minimal side effects, that can regulate inflammation in the liver to promote liver health in the setting of chronic liver disease have not been developed and they are desperately needed. […] In addition, the effect of TxpIC on these cells were tested This is a potent chemical mimicking viarl infection in the liver.

[2] = tested on: TxpIC-induced primary human hepatocytes (PHH); assay: Inflammatory gene expression in TxpIC-induced primary human hepatocytes; type: cell-based; details: for Tx pIC induced CxCl10 expression: as compared with sPIF; for Tx pIC induced RSAD2: sPIF 200 nM
Excerpt: (§1) Methods Primary human hepatocytes (PHHs) and HepaRG™ cells were studied. The later are terminally differentiated hepatic cells derived from a human hepatic progenitor cell line that retains many characteristics of primary human hepatocytes were purchased from Thermo Fisher Scientific Inc. (MA, USA). PHHs were also obtained from Dr. David Geller, at the University of Pittsburgh, through the NIH funded Liver Tissue and Cell Distribution System (LTCDS) and maintained in Williams E Medium containing cell maintenance supplement reagents from Invitrogen (Carlsbad, Calif.). The HCV JFH strain was used in cell culture experiments at an M.O.I. of 0.5-1. […] In other experiments TxpIC at 500 ng/ml were added to the cells. This chemical replicates a viral induced inflammation and therefore it can be used in different cell types also when hepatitis C infection is difficult to induce. […] Li, K. (2012). Hepatology, 55: 666-675. For analysis of endogenous mRNA levels, total RNA was isolated from cells using the RNeasy RNA extraction kit (Qiagen, Valencia, Calif.) and cDNA synthesis was performed using 0.5 μg of total RNA (Transcriptor First Strand cDNA Synthesis Kit, Roche, Basel, Switzerland). Fluorescence real-time PCR analysis was preformed using an ABI 7500 instrument (Applied Biosystems, Foster City, Calif.) and TaqMan gene expression assay (Applied Biosystems). Relative amounts of mRNA, determined using a FAM-Labeled TaqMan Probe, were normalized to the 18S ribosomal RNA levels in each PCR reaction using the eukaryotic 18S rRNA endogenous control from ABI (VIC/MGB Probe, Primer Limited, Cat #4319413E). The delta 2(-Delta Delta C(T)) method was used for quantitation of relative mRNA levels and fold induction.

[3] = tested on: Hepatitis C (HCV)-induced primary human hepatocytes (PHH); assay: Inflammatory gene expression in HCV-induced primary human hepatocytes; type: cell-based
Excerpt: as §1

[4] = tested on: HepaRG cells induced by TxpIC; assay: Inflammatory gene expression in TxpIC-induced HepaRG cells (real-time PCR); type: cell-based, human; details: TxpIC 500 ng/ml
Excerpt: Methods Primary human hepatocytes (PHHs) and HepaRG™ cells were studied. The later are terminally differentiated hepatic cells derived from a human hepatic progenitor cell line that retains many characteristics of primary human hepatocytes were purchased from Thermo Fisher Scientific Inc. (MA, USA). PHHs were also obtained from Dr. David Geller, at the University of Pittsburgh, through the NIH funded Liver Tissue and Cell Distribution System (LTCDS) and maintained in Williams E Medium containing cell maintenance supplement reagents from Invitrogen (Carlsbad, Calif.). The HCV JFH strain was used in cell culture experiments at an M.O.I. of 0.5-1. […] In other experiments TxpIC at 500 ng/ml were added to the cells. […] Fluorescence real-time PCR analysis was preformed using an ABI 7500 instrument (Applied Biosystems, Foster City, Calif.) and TaqMan gene expression assay (Applied Biosystems). Relative amounts of mRNA, determined using a FAM-Labeled TaqMan Probe, were normalized to the 18S ribosomal RNA levels in each PCR reaction using the eukaryotic 18S rRNA endogenous control from ABI (VIC/MGB Probe, Primer Limited, Cat #4319413E). The delta 2(-Delta Delta C(T)) method was used for quantitation of relative mRNA levels and fold induction.

Sequence	Effectiveness [1]	Kv flux 100% in nt (stimulus buffer only) [1] [%]	other results
MVRIFPGSANKPSDD [PIF-pos2]	−17.02	117	–
MVRIYPGSANKPSDD [PIF-pos3]	52.05	47.95	K+ inhibition as compared with sPIF [1]: increased K+ inhibition as compared with sPIF; 500 ng/ml TpxIC induced CCL5 [2]: Inhibitory effect; Tx pIC induced CxCl10 expression [2]: inhibit; Tx pIC induced RSAD2 [2]: inhibit; HCV induced CXCL10 expression [3]: inhibit; INFa induced suppression of HCV [3]: potentiate
MVRIKPGSANKPSFD [PIF-pos10]	53.72	46.28	K+ inhibition as compared with sPIF [1]: increased K+ inhibition as compared with sPIF; effect on RSAD2 compared with sPIF [4]: similar; suppression of CxCL10, IL28, CCL5 compared with sPIF ([4]; time dependent): more pronounced suppression than sPIF; 500 ng/ml TpxIC induced CCL5 [2]: Inhibitory effect; Tx pIC induced CxCl10 expression [2]: inhibit; Tx pIC induced RSAD2 [2]: inhibit; HCV induced CXCL10 expression [3]: inhibit; HCV induced IL28 expression [3]: Inhibitory effect; INFa induced suppression of HCV [3]: potentiate
MVRIKPGSWNKPSDD [PIF-pos7]	−22.27	122.3	–
MVRIWPGSANKPSDD [PIF-pos1]	47.8	52.2	–
MVRIKPYSANKPSDD [PIF-pos5]	22.81	77.19	–
MVRIKPWSANKPSDD [PIF-pos6]	−20.45	120.5	–
MVRIKPGSANWPSDD [PIF-pos8]	45.79	54.21	–
MVRIIPGSANKPSDD [PIF-pos4]	−1.117	101.1	–
MVRIKPGSANKWSDD [PIF-pos9]	34.09	65.91	–

From patent publication US20230190867A1, “METHODS OF TREATING NASH AND COMPOSITIONS THEREFORE” (BIOINCEPT, LLC, priority 2018, published 2023)
